Test results as given in patent US8895547B2, “Substituted phenyl-oxathiazine derivatives, method for producing them, drugs containing said compounds and the use thereof” (Sanofi, priority 2011, dated 2014).

biological target: T1, human 11β-HSD1 (Homo sapiens, UniProt P28845); test: Enzymatic 11beta-HSD1 test (SPA-based detection); type: biochemical; details: human 11β-HSD1 microsome fraction, [1,2-3H]-cortisone, NADPH, 37° C. 1 hour
T1 construct: host or cells: microsome fraction
Experimental: Enzymatic 11beta-HSD1 test:
To measure the activity of the compounds, an SPA-based detection method (Solly et al. 2005) was employed. First of all, 20 μl of the human 11β-HSD1 microsome fraction (0.2 μg of protein), prepared in 50 mM HEPES, 0.1% BSA (w/v), were applied to a plate with 384 wells. The test compounds (0.09 μl) were applied to the assay plate in 100% DMSO. The reaction was started by addition of 20 μl of [1,2-^3H]-cortisone (0.1 μCi/[…]) in assay buffer comprising 25 mM HEPES, 100 mM KCl, 5 mM NaCl, 2 mM MgCl2 and 0.25 mM NADPH. The plate was agitated at 37° C. for 1 hour. At the same time, a stop solution comprising 20 mg/ml SPA-PVT beads, 1.6 mg/ml monoclonal cortisol antibody and 0.01 mM SSR110887 (inhibitor from the Biovitrium patent) in 50 mM HEPES, 1 M NaCl and 1 M KCl was stirred at room temperature. To stop the reaction, 25 μl of the stop solution were added to each well. The plate was agitated gently at room temperature for 1 further hour and then centrifuged at 500 gav for 1 minute, in order that the SPA beads could settle out. The plate was then read in a Wallac-1450-Microbeta unit with a standard SPA program (counting time 1 min/well). The comparative compound was glycyrrhetinic acid.
Protein and radioactive substrate were dispensed with a Biomek FX unit (Beckman Coulter) for handling liquids. The test compounds were added with a Cybi-Well equipped with a 90 nl pin tool (CyBio).
Lit.: Solly S, Mundt S S, Zokian H J, Juy-Fang Ding G, Hermanowski-Vosatka A, Strulovici B and Zheng W. High-throughput screening of 11β-Hydroxysteroid dehydrogenase type 1 in scintillation proximity format. Assay Drug Dev Technol 2005; 3:377-384.

T1 sequence (P28845 whole entry): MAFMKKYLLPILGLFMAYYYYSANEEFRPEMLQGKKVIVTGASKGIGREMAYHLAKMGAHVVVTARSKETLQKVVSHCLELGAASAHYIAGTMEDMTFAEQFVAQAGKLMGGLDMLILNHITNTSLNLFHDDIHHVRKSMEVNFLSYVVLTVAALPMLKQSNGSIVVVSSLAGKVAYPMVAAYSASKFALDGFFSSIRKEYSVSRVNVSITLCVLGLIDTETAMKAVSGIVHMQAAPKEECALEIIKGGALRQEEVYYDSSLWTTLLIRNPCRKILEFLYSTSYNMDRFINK

SMILES | IC50 [nM]
C[C@H](NC1=NS(=O)(=O)C(C)(c2cccc(Br)c2)C(C)(C)O1)c1ccccc1F (stereo partly drawn) [Example 30, [5-(3-Bromophenyl)-5,6,6-trimethyl-4,4-dioxo-5,6-dihydro-4H-4lambda6-[1,4,3]oxathiazin-2-yl]-[(S)-1-(2-fluorophenyl)-ethyl]-amine] | 7
CC1(C)OC(N[C@@H](CCO)c2ccccc2)=NS(=O)(=O)C1(C)c1cccc(Br)c1 (stereo partly drawn) [Example 33, (S)-3-[5-(3-Bromophenyl)-5,6,6-trimethyl-4,4-dioxo-5,6-dihydro-4H-4lambda6-[1,4,3]oxathiazin-2-ylamino]-3-phenyl-propan-1-ol] | 8
COc1cccc(C2C(C)(C)OC(N[C@@H](CCO)c3ccccc3)=NS2(=O)=O)c1 (stereo partly drawn) [Example 37, (S)-3-[5-(3-Methoxy-phenyl)-6,6-dimethyl-4,4-dioxo-5,6-dihydro-4H-4lambda6-[1,4,3]oxathiazin-2-ylamino]-3-phenyl-propan-1-ol] | 13
CC1(C)OC(N[C@@H](CCO)c2ccccc2F)=NS(=O)(=O)C1(C)c1cccc(-c2cncnc2)c1 (stereo partly drawn) [Example 46, (S)-3-(2-Fluorophenyl)-3-[5,6,6-trimethyl-4,4-dioxo-5-(3-pyrimidin-5-yl-phenyl)-5,6-dihydro-4H-4lambda6-[1,4,3]oxathiazin-2-ylamino]-propan-1-ol] | 18
CC1(C)OC(N[C@@H](CCO)c2ccccc2F)=NS(=O)(=O)C1(C)c1cccc(Br)c1 (stereo partly drawn) [Example 47, (S)-3-[5-(3-Bromophenyl)-5,6,6-trimethyl-4,4-dioxo-5,6-dihydro-4H-4lambda6-[1,4,3]oxathiazin-2-ylamino]-3-(2-fluorophenyl)-propan-1-ol] | 5
CC1(C)OC(N[C@@H](CCO)c2ccccc2F)=NS(=O)(=O)C1c1ccc(-c2ccccc2)cc1 (stereo partly drawn) [Example 51, (S)-3-(5-Biphenyl-4-yl-6,6-dimethyl-4,4-dioxo-5,6-dihydro-4H-4lambda6-[1,4,3]oxathiazin-2-ylamino)-3-(2-fluorophenyl)-propan-1-ol] | 15
CC1(C)OC(N[C@@H](CCO)c2ccccc2F)=NS(=O)(=O)C1(C)c1ccc(-c2ccccc2)cc1 (stereo partly drawn) [Example 53, (S)-3-(5-Biphenyl-4-yl-5,6,6-trimethyl-4,4-dioxo-5,6-dihydro-4H-4lambda6-[1,4,3]oxathiazin-2-ylamino)-3-(2-fluorophenyl)-propan-1-ol] | 8
CC1(C)OC(N[C@@H](CCO)c2ccccc2)=NS(=O)(=O)C1(C)c1ccc(-c2ccccc2)cc1 (stereo partly drawn) [Example 54, (S)-3-(5-Biphenyl-4-yl-5,6,6-trimethyl-4,4-dioxo-5,6-dihydro-4H-4lambda6-[1,4,3]oxathiazin-2-ylamino)-3-phenyl-propan-1-ol] | 9
Cc1ccccc1-c1ccc(C2C(C)(C)OC(N[C@@H](CCO)c3ccccc3F)=NS2(=O)=O)cc1 (stereo partly drawn) [Example 64, (S)-3-[6,6-Dimethyl-5-(2′-methyl-biphenyl-4-yl)-4,4-dioxo-5,6-dihydro-4H-4lambda6-[1,4,3]oxathiazin-2-ylamino]-3-(2-fluorophenyl)-propan-1-ol] | 12
COc1ccc(-c2ccc(C3C(C)(C)OC(N[C@@H](CCO)c4ccccc4F)=NS3(=O)=O)cc2)cc1 (stereo partly drawn) [Example 66, (S)-3-(2-Fluorophenyl)-3-[5-(4′-methoxy-biphenyl-4-yl)-6,6-dimethyl-4,4-dioxo-5,6-dihydro-4H-4lambda6-[1,4,3]oxathiazin-2-ylamino]-propan-1-ol] | 23
O=S1(=O)N=C(N[C@@H](CCO)c2ccccc2F)OC2(COC2)C1c1ccc(-c2ccccc2)cc1 (stereo partly drawn) [Example 76, (S)-3-(9-Biphenyl-4-yl-8,8-dioxo-2,5-dioxa-8lambda6-thia-7-aza-spiro[3.5]non-6-en-6-ylamino)-3-(2-fluorophenyl)-propan-1-ol] | 332
O=S1(=O)N=C(N[C@@H](CCO)c2ccccc2F)OC2(CCCC2)C1c1ccc(-c2ccccc2)cc1 (stereo partly drawn) [Example 78, (S)-3-(10-Biphenyl-4-yl-9,9-dioxo-6-oxa-9lambda6-thia-8-aza-spiro[4.5]dec-7-en-7-ylamino)-3-(2-fluorophenyl)-propan-1-ol] | 35

Next, values leading:

IC50 [nM] | SMILES
13 | C[C@H](NC1=NS(=O)(=O)C(c2cccc(Br)c2)C(C)(C)O1)c1ccccc1F (stereo partly drawn) [Example 27, [5-(3-Bromophenyl)-6,6-dimethyl-4,4-dioxo-5,6-dihydro-4H-4lambda6-[1,4,3]oxathiazin-2-yl]-[(S)-1-(2-fluorophenyl)-ethyl]-amine]
10 | C[C@H](NC1=NS(=O)(=O)C(c2ccccc2)C(C)(C)O1)c1ccccc1F (stereo partly drawn) [Example 31, (6,6-Dimethyl-4,4-dioxo-5-phenyl-5,6-dihydro-4H-4lambda6-[1,4,3]oxathiazin-2-yl)-[(S)-1-(2-fluoro-phenyl)-ethyl]-amine]
24 | CC1(C)OC(N[C@@H](CCO)c2ccccc2)=NS(=O)(=O)C1c1cccc(O)c1 (stereo partly drawn) [Example 32, 3-[2-((S)-3-Hydroxy-1-phenyl-propylamino)-6,6-dimethyl-4,4-dioxo-5,6-dihydro-4H-4lambda6-[1,4,3]oxathiazin-5-yl]-phenol]
17 | CC1(C)OC(N[C@@H](CCO)c2ccccc2)=NS(=O)(=O)C1(C)c1ccccc1 (stereo partly drawn) [Example 42, (S)-3-Phenyl-3-(5,6,6-trimethyl-4,4-dioxo-5-phenyl-5,6-dihydro-4H-4lambda6-[1,4,3]oxathiazin-2-ylamino)-propan-1-ol]
13 | CC1(C)OC(N[C@@H](CCO)c2ccccc2F)=NS(=O)(=O)C1(C)c1cccc(N2CCN(S(C)(=O)=O)CC2)c1 (stereo partly drawn) [Example 44, (S)-3-(2-Fluorophenyl)-3-{5-[3-(4-methanesulfonyl-piperazin-1-yl)-phenyl]-5,6,6-trimethyl-4,4-dioxo-5,6-dihydro-4H-4lambda6-[1,4,3]oxathiazin-2-ylamino}-propan-1-ol]
40 | CC1(C)OC(N[C@@H](CCO)c2ccccc2)=NS(=O)(=O)C1(F)c1cccc(Br)c1 (stereo partly drawn) [Example 50, (S)-3-[5-(3-Bromophenyl)-5-fluoro-6,6-dimethyl-4,4-dioxo-5,6-dihydro-4H-4lambda6-[1,4,3]oxathiazin-2-ylamino]-3-phenyl-propan-1-ol]
28 | C[C@H](NC1=NS(=O)(=O)C(C)(c2ccc(-c3ccccc3)cc2)C(C)(C)O1)c1ccccc1F (stereo partly drawn) [Example 55, (5-Biphenyl-4-yl-5,6,6-trimethyl-4,4-dioxo-5,6-dihydro-4H-4lambda6-[1,4,3]oxathiazin-2-yl)-[(S)-1-(2-fluorophenyl)-ethyl]-amine]
21 | CC1(C)OC(N[C@@H](CCO)c2ccccc2F)=NS(=O)(=O)C1c1ccc(-c2ccc(F)cc2)cc1 (stereo partly drawn) [Example 65, (S)-3-[5-(4′-Fluorobiphenyl-4-yl)-6,6-dimethyl-4,4-dioxo-5,6-dihydro-4H-4lambda6-[1,4,3]oxathiazin-2-ylamino]-3-(2-fluorophenyl)-propan-1-ol]
15 | CC1(C)OC(N[C@@H](CCO)c2ccccc2F)=NS(=O)(=O)C1c1cccc(-c2ccccc2)c1 (stereo partly drawn) [Example 67, (S)-3-(5-Biphenyl-3-yl-6,6-dimethyl-4,4-dioxo-5,6-dihydro-4H-4lambda6-[1,4,3]oxathiazin-2-ylamino)-3-(2-fluorophenyl)-propan-1-ol]
34 | C[C@H](NC1=NS(=O)(=O)C(c2cccc(-c3ccccc3)c2)C(C)(C)O1)c1ccccc1F (stereo partly drawn) [Example 68, (5-Biphenyl-3-yl-6,6-dimethyl-4,4-dioxo-5,6-dihydro-4H-4lambda6-[1,4,3]oxathiazin-2-yl)-[(S)-1-(2-fluorophenyl)-ethyl]-amine]
22 | CC1(C)OC(N[C@@H](CCO)c2ccccc2F)=NS(=O)(=O)C1(C)c1cccc(-c2ccc(F)cc2)c1 (stereo partly drawn) [Example 71, (S)-3-[5-(4′-Fluorobiphenyl-3-yl)-5,6,6-trimethyl-4,4-dioxo-5,6-dihydro-4H-4lambda6-[1,4,3]oxathiazin-2-ylamino]-3-(2-fluorophenyl)-propan-1-ol]
46 | CC1(C)OC(N[C@@H](CCO)c2ccccc2)=NS(=O)(=O)C1(C)c1cccc(-c2ccccc2)c1 (stereo partly drawn) [Example 72, (S)-3-(5-Biphenyl-3-yl-5,6,6-trimethyl-4,4-dioxo-5,6-dihydro-4H-4lambda6-[1,4,3]oxathiazin-2-ylamino)-3-phenyl-propan-1-ol]
28 | C[C@H](NC1=NS(=O)(=O)C(C)(c2cccc(-c3ccccc3)c2)C(C)(C)O1)c1ccccc1F (stereo partly drawn) [Example 73, (5-Biphenyl-3-yl-5,6,6-trimethyl-4,4-dioxo-5,6-dihydro-4H-4lambda6-[1,4,3]oxathiazin-2-yl)-[(S)-1-(2-fluorophenyl)-ethyl]-amine]
26 | O=S1(=O)N=C(N[C@@H](CCO)c2ccccc2F)OC2(CCC2)C1c1ccc(-c2ccccc2)cc1 (stereo partly drawn) [Example 77, (S)-3-(9-Biphenyl-4-yl-8,8-dioxo-5-oxa-8lambda6-thia-7-aza-spiro[3.5]non-6-en-6-ylamino)-3-(2-fluorophenyl)-propan-1-ol]
